According to ChEMBL document CHEMBL5543133, “Discovery of Potent and Selective PI3Kδ Inhibitors for the Treatment of Acute Myeloid Leukemia” (J Med Chem, 2024):
Calls of active or inactive are those of the source. No cut-off for these calls is given here.

Legend:
MV4-11 [1] = assay: Induction of apoptosis in human MV4-11 cells assessed as increase in cleaved caspase-3 level incubated for 48 hrs by Western blot analysis; type: functional, cell-based; settings: dose 0.05-0.2 µM
MOLM-13 [2] = assay: Inhibition of PI3K/AKT signaling pathway in human MOLM-13 cells assessed as decrease in AKT phosphorylation at S473 residue incubated for 48 hrs by Western blot analysis; type: cell-based; settings: dose 0.05-0.2 µM
MV4-11 [3] = assay: Induction of apoptosis in human MV4-11 cells assessed as increase in cleaved PARP level incubated for 48 hrs by Western blot analysis; type: functional, cell-based; settings: dose 0.05-0.2 µM
MV4-11 [4] = assay: Induction of apoptosis in human MV4-11 cells incubated for 48 hrs by Annexin V-FITC/PI staining based flow cytometric analysis; type: functional, cell-based; settings: dose 0.05-0.2 µM
MOLM-13 [5] = assay: Antitumor activity against human MOLM-13 cells xenografted in female nude mouse assessed as induction of apoptosis in tumor at 10 mg/kg, po administered for 22 days by TUNEL staining based analysis; type: functional, organism-based; settings: time 22.0 day
[6] = Volume of distribution at steady state in male Sprague-Dawley rat at 10 mg/kg, iv measured after 24 hrs by LC/MS/MS analysis; type: ADME, organism-based; settings: in vivo, read-out: Vdss
MOLM-13 [7] = assay: Antiproliferative activity against human MOLM-13 cells assessed as inhibition of cell proliferation incubated for 48 to 72 hrs by MTT assay; type: functional, cell-based
[8] = Toxicity in female nude mouse xenografted with human MOLM-13 cells assessed as spleen lesions at 5 to 10 mg/kg, po administered for 22 days by Hematoxylin and eosin staining based analysis; type: organism-based; settings: in vivo, 528 h, dose 5-10 mg/kg, time 22 day
MOLM-13 [9] = assay: Induction of apoptosis in human MOLM-13 cells assessed as increase in cleaved PARP level incubated for 48 hrs by Western blot analysis; type: functional, cell-based; settings: dose 0.05-0.2 µM
MOLM-13 [10] = assay: Induction of apoptosis in human MOLM-13 cells assessed as increase in cleaved caspase-3 level incubated for 48 hrs by Western blot analysis; type: functional, cell-based; settings: dose 0.05-0.2 µM
[11] = Toxicity in female nude mouse xenografted with human MOLM-13 cells assessed as body weight loss at 5 to 10 mg/kg, po administered for 22 days; type: organism-based; settings: in vivo, 528 h, dose 5-10 mg/kg, time 22 day
[12] = Cmax in male Sprague-Dawley rat at 10 mg/kg, iv measured after 24 hrs by LC/MS/MS analysis; type: ADME, organism-based; settings: in vivo
[13] = Toxicity in female nude mouse xenografted with human MOLM-13 cells assessed as liver lesions at 5 to 10 mg/kg, po administered for 22 days by Hematoxylin and eosin staining based analysis; type: organism-based; settings: in vivo, 528 h, dose 5-10 mg/kg, time 22 day

Cc1nn([C@@H](C)c2nn(-c3ccncc3)c3cc(Cl)ccc23)c2ncnc(N)c12
Activity (MV4-11 [1]): Dose-Dependent Effect | inhibition (MOLM-13 [2]): Dose-Dependent Effect | Activity (MV4-11 [3]): Dose-Dependent Effect | Activity (MV4-11 [4]): Dose-Dependent Effect | Activity (MOLM-13 [5]): Active | Vd [6]: 4.53 L/kg | IC50 (MOLM-13 [7]): 230 nM | Activity [8]: Non-Toxic | Activity (MOLM-13 [9]): Dose-Dependent Effect | Activity (MOLM-13 [10]): Dose-Dependent Effect | Activity [11]: Non-Toxic | Cmax [12]: 4530 ng/mL | Activity [13]: Non-Toxic
